Measured values as given in patent publication US9090628B2, “Benzoxazepin compounds selective for PI3K P110 delta and methods of use” (GENENTECH, INC., priority 2011, dated 2015).

Legend:
p110 alpha = p110 alpha (Homo sapiens (Human), UniProt P42336); assay: PI3K isoform inhibition assay, p110 alpha (for alpha/delta selectivity); settings: ratio of biochemical IC50 values
In short: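 Fluorescence polarization displacement of a fluorescent PIP3 probe from GRP-1 detector by PI3K-formed PIP3; p110α/p85α at 40 ng/mL with 10 μM PIP2 substrate.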

p110 delta = p110 delta (Homo sapiens (Human), UniProt O00329); assay: PI3K isoform inhibition assay, p110 delta (fluorescence polarization displacement); assay type: biochemical
Chain of p110 delta (O00329 whole entry, canonical isoform): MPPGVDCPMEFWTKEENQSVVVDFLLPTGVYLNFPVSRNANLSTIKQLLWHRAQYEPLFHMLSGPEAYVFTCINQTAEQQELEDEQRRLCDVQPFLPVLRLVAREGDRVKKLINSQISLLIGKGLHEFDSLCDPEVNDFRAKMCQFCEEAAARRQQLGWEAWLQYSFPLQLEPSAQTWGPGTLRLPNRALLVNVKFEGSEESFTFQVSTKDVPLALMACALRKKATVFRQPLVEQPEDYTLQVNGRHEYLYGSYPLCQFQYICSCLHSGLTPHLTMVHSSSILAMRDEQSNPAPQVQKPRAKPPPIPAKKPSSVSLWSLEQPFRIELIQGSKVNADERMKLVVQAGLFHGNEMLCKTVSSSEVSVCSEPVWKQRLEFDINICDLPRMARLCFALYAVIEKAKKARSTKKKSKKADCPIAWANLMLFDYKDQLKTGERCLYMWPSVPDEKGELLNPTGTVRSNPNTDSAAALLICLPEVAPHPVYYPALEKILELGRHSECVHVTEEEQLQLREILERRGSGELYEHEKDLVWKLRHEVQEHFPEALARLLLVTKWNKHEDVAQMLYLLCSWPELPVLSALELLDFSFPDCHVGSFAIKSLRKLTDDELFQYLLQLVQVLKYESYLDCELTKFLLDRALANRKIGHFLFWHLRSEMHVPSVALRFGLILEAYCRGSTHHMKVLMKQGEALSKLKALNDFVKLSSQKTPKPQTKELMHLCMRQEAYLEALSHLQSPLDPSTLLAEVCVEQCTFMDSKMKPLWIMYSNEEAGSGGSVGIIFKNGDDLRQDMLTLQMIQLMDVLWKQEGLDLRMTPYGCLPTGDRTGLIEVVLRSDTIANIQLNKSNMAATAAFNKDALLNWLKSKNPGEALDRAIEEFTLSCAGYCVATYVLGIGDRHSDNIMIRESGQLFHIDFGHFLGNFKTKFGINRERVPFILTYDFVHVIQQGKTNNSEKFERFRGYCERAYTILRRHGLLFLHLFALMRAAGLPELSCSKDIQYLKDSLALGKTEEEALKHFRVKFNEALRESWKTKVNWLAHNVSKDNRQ
Chain of p110 delta (P27986 whole entry partner, canonical isoform): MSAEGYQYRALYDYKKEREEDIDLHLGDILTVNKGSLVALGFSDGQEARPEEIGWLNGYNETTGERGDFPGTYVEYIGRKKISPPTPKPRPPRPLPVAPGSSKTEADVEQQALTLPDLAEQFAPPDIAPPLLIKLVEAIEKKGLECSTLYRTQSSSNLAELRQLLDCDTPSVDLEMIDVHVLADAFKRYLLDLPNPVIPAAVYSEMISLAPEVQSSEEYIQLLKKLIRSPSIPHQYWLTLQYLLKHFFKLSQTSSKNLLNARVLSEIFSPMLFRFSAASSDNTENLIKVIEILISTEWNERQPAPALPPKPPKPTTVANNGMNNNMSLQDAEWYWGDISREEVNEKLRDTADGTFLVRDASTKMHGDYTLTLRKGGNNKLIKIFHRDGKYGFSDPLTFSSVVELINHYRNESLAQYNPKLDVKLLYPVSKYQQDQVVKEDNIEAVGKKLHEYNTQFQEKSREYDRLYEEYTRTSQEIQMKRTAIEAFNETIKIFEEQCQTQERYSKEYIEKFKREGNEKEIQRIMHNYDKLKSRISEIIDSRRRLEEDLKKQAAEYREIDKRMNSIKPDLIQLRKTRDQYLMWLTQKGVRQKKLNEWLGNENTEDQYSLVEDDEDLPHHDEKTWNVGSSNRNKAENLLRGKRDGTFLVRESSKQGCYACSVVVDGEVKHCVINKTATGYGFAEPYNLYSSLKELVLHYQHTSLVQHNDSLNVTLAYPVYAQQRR

[1] = test system: CD69 production by B lymphocytes in human whole blood activated with anti-human IgM; assay: CD69 Whole Blood Assay; assay type: cell-based; settings: Lymphocyte, anti-IgM stimulated, CD69 positive of CD20 positive cells
Source text: There is good evidence that B-cells play a key role in the pathogenesis of autoimmune and/or inflammatory disease. Protein-based therapeutics that deplete B cells such as Rituxan are effective against autoantibody-driven inflammatory diseases such as rheumatoid arthritis (Rastetter et al. (2004) Annu Rev Med 55:477). CD69 is the early activation marker in leukocytes including T cells, thymocytes, B cells, NK cells, neutrophils, and eosinophils. The CD69 human whole blood assay (Example 903) determines the ability of compounds to inhibit the production of CD69 by B lymphocytes in human whole blood activated by crosslinking surface IgM with goat F(ab′)2 anti-human IgM.
Human blood is obtained from healthy volunteers, with the following restrictions: 1 week drug-free, non-smokers. Blood (approximately 20 mls to test 8 compounds) is collected by venipuncture into Vacutainer tubes with sodium heparin.
Solutions of Formula I compounds at 1000 or 2000 μM in PBS (20×), are diluted by three-fold serial dilutions in 10% DMSO in PBS for a nine point dose-response curve. An aliquot of 5.5 μl of each compound is added in duplicate to a 2 ml 96-well plate; 5.5 μl of 10% DMSO in PBS is added as control and no-stimulus wells. Human whole blood—HWB (100 μl) is added to each well. After mixing the plates are incubated at 37° C., 5% CO2, 100% humidity for 30 minutes. Goat F(ab′)2 anti-human IgM (10 μl of a 500 μg/ml solution, 50 μg/ml final) is added to each well (except the no-stimulus wells) with mixing and the plates are incubated for an additional 20 hours. At the end of the 20 hour incubation, samples are incubated with fluorescent labeled antibodies for 30 minutes, at 37° C., 5% CO2, 100% humidity. Include induced control, unstained and single stains for compensation adjustments and initial voltage settings. Samples are then lysed with Pharmingen Lyse according to the manufacturer's instructions. Samples are then transferred to a 96 well plate suitable to be run on the AMS 96 well system on the BD Calibur FACs machine. Data acquired and Mean Fluorescence Intensity values were obtained using Cell Quest Software. Results are initially analyzed by FACS analysis software (Flow Jo).

Chain of p110 alpha (P42336 whole entry, canonical isoform): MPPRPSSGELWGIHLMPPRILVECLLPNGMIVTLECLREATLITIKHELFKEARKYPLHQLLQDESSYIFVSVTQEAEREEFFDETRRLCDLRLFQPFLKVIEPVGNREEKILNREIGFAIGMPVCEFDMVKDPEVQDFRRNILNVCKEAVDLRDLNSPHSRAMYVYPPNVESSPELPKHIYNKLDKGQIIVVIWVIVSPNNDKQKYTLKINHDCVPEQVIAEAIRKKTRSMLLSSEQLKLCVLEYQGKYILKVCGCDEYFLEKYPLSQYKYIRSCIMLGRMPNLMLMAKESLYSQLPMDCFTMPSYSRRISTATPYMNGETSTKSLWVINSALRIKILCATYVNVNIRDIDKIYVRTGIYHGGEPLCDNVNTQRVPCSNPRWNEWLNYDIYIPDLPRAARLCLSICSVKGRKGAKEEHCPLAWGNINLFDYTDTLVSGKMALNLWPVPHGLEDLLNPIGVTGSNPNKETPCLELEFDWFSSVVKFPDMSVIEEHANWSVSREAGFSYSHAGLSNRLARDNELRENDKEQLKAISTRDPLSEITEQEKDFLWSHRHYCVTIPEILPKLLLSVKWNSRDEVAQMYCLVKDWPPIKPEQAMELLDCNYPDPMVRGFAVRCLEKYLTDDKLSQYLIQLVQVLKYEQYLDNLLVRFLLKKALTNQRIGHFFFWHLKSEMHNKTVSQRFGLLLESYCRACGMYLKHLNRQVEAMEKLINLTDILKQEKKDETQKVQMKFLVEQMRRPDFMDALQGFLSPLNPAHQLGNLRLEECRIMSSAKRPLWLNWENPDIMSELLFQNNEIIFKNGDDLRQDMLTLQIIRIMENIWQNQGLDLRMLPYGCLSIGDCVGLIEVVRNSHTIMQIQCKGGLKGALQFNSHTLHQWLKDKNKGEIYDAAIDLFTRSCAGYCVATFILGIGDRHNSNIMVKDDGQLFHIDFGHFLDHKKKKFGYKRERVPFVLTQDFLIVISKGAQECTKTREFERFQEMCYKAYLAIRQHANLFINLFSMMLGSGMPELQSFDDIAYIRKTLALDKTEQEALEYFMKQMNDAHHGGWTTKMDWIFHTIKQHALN
Chain of p110 alpha (P27986 whole entry partner, canonical isoform): as the sequence (P27986 whole entry partner, canonical isoform) above

IC50 p110 alpha/IC50 p110 delta (p110 alpha) | IC50 (p110 delta) [nM] | IC50 [1] [nM] | SMILES
– | – | 45.9 | CC(C)n1ncnc1-c1cn2c(n1)-c1ccc(-c3ccnn3C3CCN(C)CC3)cc1OCC2 [Example 160, 2-(1-isopropyl-1H-1,2,4-triazol-5-yl)-9-(1-(1-methylpiperidin-4-yl)-1H-pyrazol-5-yl)-5,6-dihydrobenzo[f]imidazo[1,2-d][1,4]oxazepine]
– | – | 45.8 | Cc1nc(-c2cn3c(n2)-c2ccc(N4CCC[C@@H]4C4CCN(C(C)C)CC4)cc2OCC3)n(C(C)C)n1 [Example 263, (R)-2-(1-isopropyl-3-methyl-1H-1,2,4-triazol-5-yl)-9-(2-(1-isopropylpiperidin-4-yl)pyrrolidin-1-yl)-5,6-dihydrobenzo[f]imidazo[1,2-d][1,4]oxazepine]
– | – | 38.1 | CC(C)n1ncnc1-c1cn2c(n1)-c1cnc(N3CCCC3C3CCN(C)CC3)cc1OCC2 (stereo not drawn) [Example 115, 2-(1-isopropyl-1H-1,2,4-triazol-5-yl)-9-(2-(1-methylpiperidin-4-yl)pyrrolidin-1-yl)-5,6-dihydroimidazo[1,2-d]pyrido[3,4-f][1,4]oxazepine]

Continued, compound first:

SMILES | IC50 p110 alpha/IC50 p110 delta (p110 alpha) | IC50 (p110 delta) [nM] | IC50 [1] [nM]
CC(Oc1ccc2c(c1)OCCn1cc(-c3ncnn3C(C)C)nc1-2)C1CCN(C(C)C)CC1 (stereo not drawn) [Example 143, 2-(1-isopropyl-1H-1,2,4-triazol-5-yl)-9-(1-(1-isopropylpiperidin-4-yl)ethoxy)-5,6-dihydrobenzo[f]imidazo[1,2-d][1,4]oxazepine] | 14.4 | 0.442 | 58.2
CC(C)n1ncnc1-c1cn2c(n1)-c1cc(C(=O)N3CCN(C(C)(C)C)CC3)ccc1OCC2 [Example 110, (4-tert-butylpiperazin-1-yl)(2-(1-isopropyl-1H-1,2,4-triazol-5-yl)-5,6-dihydrobenzo[f]imidazo[1,2-d][1,4]oxazepin-10-yl)methanone] | 27.1 | 0.919 | 129
Cc1nc(-c2cn3c(n2)-c2ccc(-c4cnn(C)c4C4CCCN(C(C)(C)CO)C4)cc2OCC3)n(C(C)C)n1 (stereo not drawn) [Example 248, 2-(3-(4-(2-(1-isopropyl-3-methyl-1H-1,2,4-triazol-5-yl)-5,6-dihydrobenzo[f]imidazo[1,2-d][1,4]oxazepin-9-yl)-1-methyl-1H-pyrazol-5-yl)piperidin-1-yl)-2-methylpropan-1-ol] | – | – | 49.7
CC(C)n1ncnc1-c1cn2c(n1)-c1cc(CN3CCN(C(C)(C)C)CC3)ccc1OCC2 [Example 108, 10-((4-tert-butylpiperazin-1-yl)methyl)-2-(1-isopropyl-1H-1,2,4-triazol-5-yl)-5,6-dihydrobenzo[f]imidazo[1,2-d][1,4]oxazepine] | 21.8 | 2.46 | 40.5
Cc1nc(-c2cn3c(n2)-c2ccc(-c4cnn(C)c4N4CCN(C)[C@H](C(C)C)C4)cc2OCC3)n(C(C)C)n1 [Example 367, 9-[5-[(3R)-3-isopropyl-4-methyl-piperazin-1-yl]-1-methyl-pyrazol-4-yl]-2-(2-isopropyl-5-methyl-1,2,4-triazol-3-yl)-5,6-dihydroimidazo[1,2-d][1,4]benzoxazepine] | 48.8 | 0.048 | –
Cc1nc(-c2cn3c(n2)-c2cc([C@H](C)N4CCN(C(C)(C)CO)CC4)c(F)cc2OCC3)n(C(C)C)n1 [Example 350, (S)-2-(4-(1-(9-fluoro-2-(1-isopropyl-3-methyl-1H-1,2,4-triazol-5-yl)-5,6-dihydrobenzo[f]imidazo[1,2-d][1,4]oxazepin-10-yl)ethyl)piperazin-1-yl)-2-methylpropan-1-ol] | 212 | 1.99 | –
Cc1nc(-c2cn3c(n2)-c2cc(C(=O)N4CCN(C(C)(C)C)CC4)c(F)cc2OCC3)n(C(C)C)n1 [Example 273, (4-tert-butylpiperazin-1-yl)-[9-fluoro-2-(2-isopropyl-5-methyl-1,2,4-triazol-3-yl)-5,6-dihydroimidazo[1,2-d][1,4]benzoxazepin-10-yl]methanone] | 69.9 | 2.73 | –
Cc1nc(-c2cn3c(n2)-c2cc(-c4ccnn4[C@H]4CCCN(C5COC5)C4)c(F)cc2OCC3)n(C(C)C)n1 [Example 352, (S)-9-fluoro-2-(1-isopropyl-3-methyl-1H-1,2,4-triazol-5-yl)-10-(1-(1-(oxetan-3-yl)piperidin-3-yl)-1H-pyrazol-5-yl)-5,6-dihydrobenzo[f]imidazo[1,2-d][1,4]oxazepine] | 18 | 11.5 | –
